Laboratory results from patent US20200345021A1, “METHOD AND SYSTEM FOR ENHANCING THE EFFICACY USING IONIZED/A[…] PEROXIDE IN REDUCING MICROBIAL POPULATIONS, METHOD OF USE THEREOF” (priority 2019, published 2020).
Values joined by “and” are separate entries in the source; they are usually repeats but may differ in a detail not shown here. Equal values may be shown once. Read-outs that look alike come from different tables or passages of the source. Marks after values point to notes of the source that are not given here.

Columns and labels:
[1] = tested on: total aerobic plate count (APC), native microorganisms; conditions: for Total plate count: not inoculated
Protocol: The untreated (control) and treated samples were placed separately in a Stomacher bag with 20˜100 ml of neutralizing buffer and pummeled at 260 rpm for 2 mm using Stomacher (Interscience Laboratories Inc.). Decimal dilutions of the samples were made with 0.1% peptone (Difco) and aliquots (0.1 or 1 ml) were spread plated in duplicate onto TSA with incubation at 37° C. for 24 h for the enumeration of total aerobic plate count (APC), and onto Dichloran Rose Bengal Chlortetracycline (DRBC, Difco) agar with incubation at 25° C. for 5 days for enumeration of yeast and mold. DRBC plates were wrapped with aluminum foil to […]. Experiments were conducted independently 8 times. Colonies were counted and reported as log CFU/piece.
Produce items were placed onto a sterile test tube tack with inoculated area facing up. […] The distance and voltage between the two electrodes were 9 mm and 17 kV, respectively. […] After 45 s treatment, the chamber was sealed for 30 mins (dwell time) before removal of the fresh produce items. Experiment; were repeated three times.

[2] = tested on: S. Typhimurium; conditions: for Populations of S. Typhimurium, treated / Reductions of S. Typhimurium: with cold plasma
Description: To minimize the risk of possible bacteria becoming airborne during treatments, attenuated and non-pathogenic bacteria were used in the study. Two strains of non-pathogenic S. Typhimurium (ATCC 53647 and 53648) and three strains of L. innocua (ATCC 33090, ATCC 51742 and ATCC BAA680) were obtained from American Type Culture Collection (ATCC) (Manassas, Va., USA). Further studies used E. coli O157:H7 (ATCC 700728), S. Typhimurium (ATCC 53647 and 53648), and L. innocua (ATCC 33090) obtained from American Type Culture Collection (ATCC) (Manassas, Va., USA) and maintained as a part of the culture collection at the USDA Eastern Regional Research Center (Wyndmoor, Pa. USA). The bacteria were made to be resistant to nalidixic acid by successive growth in Trypic Soy Broth (TSB) (Difco, Sparks, Md., USA) with increasing nalidixic acid concentrations. All strains were stored at −80° C. in 1 mL of TSB containing 10% glycerol. Working cultures of S. Typhimurium and L. innocua were maintained in 9 mL TSB (supplemented with 100 μg/mL nalidixic acid for S. Typhimurium) at 4° C. after incubating at 37° C. for […], respectively, and sub-cultured each time.
Each strain of S. Typhimurium and L. innocua was cultured in 9 mL TSB (supplemented with 100 μg/mL nalidixic acid for S. Typhimurium) and incubated at 37° C. for 40 h and 48 h, respectively, harvested by centrifugation at 4000×g for 10 min at 4° C., and resuspended in 9 mL sterile Buffered Peptone Water (BPW; Difco). The pellets were resuspended in BPW to form cell suspensions with a final concentration of 108˜10^9 CFU/mL. Subsequently, suspended pellets of two strains of Salmonella and three strains of L. innocua were combined to obtain two separate culture cocktails.
Grape tomatoes, granny smith apples, romaine lettuce and cantaloupes were purchased from local markets (Philadelphia, Pa., USA) and kept at 10° C. prior to use. Fruits and vegetables were removed from 10° C. refrigeration and equilibrated to ambient temperature before being inoculated. Romaine lettuce was divided into upper green leaf and midrib tissues. Six tomatoes, six pieces (2×2 cm) of apple skins, five pieces (3×3 cm) of Romaine lettuce upper leaves, five pieces (3 cm length) of Romaine lettuce midrib area and six pieces (2×2 cm) of cantaloupe rinds with 2×3 mm thickness of flesh were used for each treatment per replicate. Bach piece w as spot inoculated with 10 μL of Salmonella and L. innocua by depositing droplets with a micropipette. The inoculated samples were dried in a bio-hood for 1 h (for tomato surfaces, romaine lettuce, apple skins and cantaloupe rinds) or 2 h (for tomato stem scars) at ambient temperature.
Produce items were placed onto a sterile test tube rack with the inoculated area facing up and the rack with produce pieces were placed inside of a treatment chamber (12×12×24 inch).
For tomato surfaces and apple skins, the treatment times (spray times) were set as 5, 8 and 10 s followed by 30 min dwell time. For upper leaves and midrib tissues of Romaine lettuce, the treatment times were 10, 20, 30 and 60 s followed by 30 min dwell time. For cantaloupe rinds, the treatment times were set as 10, 30 and 60 s followed by 30 min dwell time. For tomato stem scars, the treatment procedure included 5.8, 10, 20, 30, 60 s followed by 30 min dwell time, 6 cycles composed of 10 s treatment time followed by 10 min dwell time per cycle, and 3 cycles composed of 20 s treatment time followed by 20 min dwell time per cycle. A fan (E.Z.FAN, FP-108-1, Common Wealth Industrial Corp., Taiwan) was used in the chamber to facilitate the uniform distribution of mist during dwell time.
After each treatment, the tomato stem scars and surfaces with the inoculated bacteria were removed using a pair of sterile scissors.

[3] = tested on: S. Typhimurium
[4] = Granny Smith apple skins, treatment time 5 s + 30 min dwell
[5] = Romaine lettuce leaves (upper leaf), treatment time 10 s + 30 min dwell
[6] = Romaine lettuce leaves (upper leaf), treatment time 20 s + 30 min dwell
[7] = Romaine lettuce leaves (upper leaf), treatment time 60 s + 30 min dwell
[8] = Romaine lettuce midrib area, treatment time 10 s + 30 min dwell
[9] = Romaine lettuce midrib area, treatment time 20 s + 30 min dwell
[10] = Romaine lettuce midrib area, treatment time 60 s + 30 min dwell
[11] = cantaloupe rinds, treatment time 10 s + 30 min dwell
[12] = cantaloupe rinds, treatment time 60 s + 30 min dwell
[13] = grape tomato stem scars, 10s × 6 (6 cycles of 10 s spray time followed by 10 min dwell time)
[14] = grape tomato stem scars, treatment time 8 s + 30 min dwell
[15] = grape tomato stem scars, treatment time 10 s + 30 min dwell
[16] = grape tomato stem scars, treatment time 20 s + 30 min dwell
[17] = grape tomato stem scars, treatment time 30 s + 30 min dwell
[18] = grape tomato surfaces, treatment time 5 s + 30 min dwell

OO [H2O2, hydrogen peroxide]
Total plate count ([1]; cantaloupe): 4.6 +/− 1.2a Log CFU/piece | Reduction in APC ([1]; spinach leaves): 1.3 log | Total plate count ([1]; spinach): 4.7 +/− 1.3b Log CFU/piece | Total plate count ([1]; tomato): 5.4 +/− 0.5b Log CFU/piece | Reduction in APC ([1]; tomatoes): 0.5 log | Populations of S. Typhimurium, treated [2, 4]: 4.09 ± 0.13^a log CFU/piece | Reductions of S. Typhimurium [2, 4]: 1.63 ± 0.35^b log CFU/piece | Populations of S. Typhimurium, treated ([2]; Granny Smith apple skins, treatment time 8 s + 30 min dwell, ND: not detectable (detection limit 0.70 log CFU/piece)): < 0.70 log CFU/piece | Reductions of S. Typhimurium ([2]; Granny Smith apple skins, treatment time 8 s + 30 min dwell, listed as hydrogen peroxide (H2O2) with cold plasma): more than 5 log CFU/piece | Reductions of S. Typhimurium ([2]; Granny Smith apple skins, treatment time 8 s + 30 min dwell, listed as ionized hydrogen peroxide): > 5 log CFU/piece | Populations of S. Typhimurium, treated [2, 5]: 5.45 ± 0.34^a log CFU/piece | Reductions of S. Typhimurium [2, 5]: 0.79 ± 0.16^c log CFU/piece | Populations of S. Typhimurium, treated [2, 6]: 3.98 ± 0.37^b log CFU/piece | Reductions of S. Typhimurium [2, 6]: 1.98 ± 0.24^b log CFU/piece | Populations of S. Typhimurium, treated ([2]; Romaine lettuce leaves (upper leaf), treatment time 30 s + 30 min dwell): 3.54 ± 0.11^b log CFU/piece | Reductions of S. Typhimurium ([2]; Romaine lettuce leaves (upper leaf), treatment time 30 s + 30 min dwell, listed as ionized hydrogen peroxide): 2.86 log CFU/piece and 2.86 ± 0.17^a log CFU/piece | Populations of S. Typhimurium, treated [2, 7]: 3.57 ± 0.25^b log CFU/piece | Reductions of S. Typhimurium [2, 7]: 2.79 ± 0.20^a log CFU/piece | Populations of S. Typhimurium, treated [2, 8]: 4.81 ± 0.22^a log CFU/piece | Reductions of S. Typhimurium [2, 8]: 1.53 ± 0.23^c log CFU/piece | Populations of S. Typhimurium, treated [2, 9]: 4.09 ± 0.25^b log CFU/piece | Reductions of S. Typhimurium [2, 9]: 2.04 ± 0.33^b log CFU/piece | Populations of S. Typhimurium, treated ([2]; Romaine lettuce midrib area, treatment time 30 s + 30 min dwell): 2.54 ± 0.32^c log CFU/piece | Reductions of S. Typhimurium ([2]; Romaine lettuce midrib area, treatment time 30 s + 30 min dwell, listed as ionized hydrogen peroxide): 3.63 log CFU/piece and 3.63 ± 0.21^a log CFU/piece | Populations of S. Typhimurium, treated [2, 10]: 2.94 ± 0.18^c log CFU/piece | Reductions of S. Typhimurium [2, 10]: 3.13 ± 0.48^a log CFU/piece | Populations of S. Typhimurium, treated [2, 11]: 4.39 ± 0.32^a log CFU/piece | Reductions of S. Typhimurium [2, 11]: 1.50 ± 0.21^b log CFU/piece | Populations of S. Typhimurium, treated ([2]; cantaloupe rinds, treatment time 30 s + 30 min dwell): 4.09 ± 0.24^a log CFU/piece | Reductions of S. Typhimurium ([2]; cantaloupe rinds, treatment time 30 s + 30 min dwell, listed as ionized hydrogen peroxide): 2.48 log CFU/piece and 2.48 ± 0.68^a log CFU/piece | Populations of S. Typhimurium, treated [2, 12]: 3.23 ± 0.28^b log CFU/piece | Reductions of S. Typhimurium [2, 12]: 2.44 ± 0.32^a log CFU/piece | Populations of S. Typhimurium, treated [2, 13]: 3.89 ± 0.39^ab log CFU/piece | Reductions of S. Typhimurium [2, 13]: 2.19 ± 0.41^b log CFU/piece | Populations of S. Typhimurium, treated ([2]; grape tomato stem scars, listed as printed 20s × 6 (title: 20s×3, 3 cycles of 20 s spray time with 20 min dwell time)): 3.60 ± 0.42^b log CFU/piece | Reductions of S. Typhimurium ([2]; grape tomato stem scars, listed as printed 20s × 6 (title: 20s×3, 3 cycles of 20 s spray time with 20 min dwell time), listed as ionized hydrogen peroxide): 2.73 log CFU/piece and 2.73 ± 0.28^a log CFU/piece | Populations of S. Typhimurium, treated ([2]; grape tomato stem scars, treatment time 5 s + 30 min dwell): 4.26 ± 0.89^ab log CFU/piece | Reductions of S. Typhimurium ([2]; grape tomato stem scars, treatment time 5 s + 30 min dwell, listed as ionized hydrogen peroxide): 1.06 log CFU/piece and 1.06 ± 0.35^d log CFU/piece | Populations of S. Typhimurium, treated [2, 14]: 4.23 ± 0.31^ab log CFU/piece | Reductions of S. Typhimurium [2, 14]: 1.22 ± 0.28^d log CFU/piece | Populations of S. Typhimurium, treated [2, 15]: 4.26 ± 0.71^ab log CFU/piece | Reductions of S. Typhimurium [2, 15]: 1.20 ± 0.14^d log CFU/piece | Populations of S. Typhimurium, treated [2, 16]: 4.71 ± 0.26^ab log CFU/piece | Reductions of S. Typhimurium [2, 16]: 1.51 ± 0.34^cd log CFU/piece | Populations of S. Typhimurium, treated [2, 17]: 4.31 ± 0.20^a log CFU/piece | Reductions of S. Typhimurium [2, 17]: 1.85 ± 0.11^bc log CFU/piece | Populations of S. Typhimurium, treated ([2]; grape tomato stem scars, treatment time 60 s + 30 min dwell): 3.85 ± 0.66^ab log CFU/piece | Reductions of S. Typhimurium ([2]; grape tomato stem scars, treatment time 60 s + 30 min dwell, listed as ionized hydrogen peroxide): 2.16 log CFU/piece and 2.16 ± 0.43^b log CFU/piece | Populations of S. Typhimurium, treated [2, 18]: 4.44 ± 0.25^a log CFU/piece | Reductions of S. Typhimurium [2, 18]: 1.84 ± 0.43^b log CFU/piece | Populations of S. Typhimurium, treated ([2]; grape tomato surfaces, treatment time 8 s + 30 min dwell, ND: not detectable (detection limit 0.70 log CFU/piece)): < 0.70 log CFU/piece | Reductions of S. Typhimurium ([2]; grape tomato surfaces, treatment time 8 s + 30 min dwell, listed as hydrogen peroxide (H2O2) with cold plasma): more than 5 log CFU/piece | Reductions of S. Typhimurium ([2]; grape tomato surfaces, treatment time 8 s + 30 min dwell, listed as ionized hydrogen peroxide): > 5 log CFU/piece | Reductions of S. Typhimurium ([2]; grape tomato surfaces, treatment time 10 s + 30 min dwell): 5.65 ± 0.21^a log CFU/piece | log reduction of Salmonella on other fresh produce items ([2]; produce other than smooth surfaces of tomatoes and apples, applied for a longer time period): ≤ 3.6 log | log reductions of Salmonella on rough surfaces ([2]; rough surfaces (tomato stem scars, cantaloupe rinds), similar treatment times): 2.8-3.6 log | log reductions of Salmonella on smooth surfaces ([2]; smooth surfaces (apples, tomatoes), 8-10 s treatment time + 30 min dwell time): greater than 5 log | Reduction of Salmonella [3]: 4.2 log CFU/leaf
